# According to patent US8785445B2 (Array BioPharma Inc., priority 2008, dated 2014):
# Target: T1, human DP2 (Homo sapiens, UniProt Q9Y5Y4)
# T1 construct: expressed in transfected cells; membranes prepared
# T1 sequence (Q9Y5Y4 1-395): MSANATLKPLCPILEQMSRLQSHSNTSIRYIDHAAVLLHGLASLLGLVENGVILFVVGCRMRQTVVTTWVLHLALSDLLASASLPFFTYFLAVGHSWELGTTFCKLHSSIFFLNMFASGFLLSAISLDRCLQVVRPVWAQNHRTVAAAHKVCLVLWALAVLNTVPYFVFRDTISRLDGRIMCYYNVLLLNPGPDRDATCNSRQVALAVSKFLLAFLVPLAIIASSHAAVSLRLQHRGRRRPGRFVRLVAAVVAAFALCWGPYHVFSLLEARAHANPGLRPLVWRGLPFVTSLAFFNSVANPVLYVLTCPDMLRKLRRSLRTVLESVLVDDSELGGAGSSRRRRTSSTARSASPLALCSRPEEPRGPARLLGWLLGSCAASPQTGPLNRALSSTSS
# Assay: DP-2 binding inhibition assay (3H-PGD2, membranes of DP2-expressing K562 cells)
# Conditions: 0.1% BSA, read-out: EC50 (nM) 0.1% BSA
# Outline: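 Displacement of 3H-PGD2 was measured by filtration and scintillation counting after 60 min at room temperature, using membranes of DP2-transfected K562 cells in 0.1% BSA, 1% HSA or 4% HSA.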
row,EC50 [nM],Compound
1,8,"O=C(Nc1cccc(-c2ccc(Cl)cc2)n1)c1ccc(Oc2c(Cl)cc3c(c2C2CC2)OCCC3C(=O)O)cc1 (stereo not drawn) [Example 108, Sodium 6-chloro-7-(4-(6-(4-chlorophenyl)pyridin-2-ylcarbamoyl)phenoxy)-8-cyclopropylchroman-4-carboxylate]"
2,12.8,"N#Cc1cc2c(cc1Oc1ccc(C(=O)Nc3ccc4ccccc4n3)cc1)OCCC2C(=O)O (stereo not drawn) [Example 3, 6-Cyano-7-(4-(quinolin-2-ylcarbamoyl)phenoxy)chroman-4-carboxylic acid]"
3,1.2,"O=C(Nc1ccc(-c2ccc(C(F)(F)F)cc2)nn1)c1ccc(Oc2cc3c(cc2Cl)C(C(=O)O)CCO3)cc1 (single isomer, unassigned; enantiomer 2) [Example 185, Enantiomer 2 of sodium 6-chloro-7-(4-(6-(4-(trifluoromethyl)phenyl)pyridazin-3-ylcarbamoyl)phenoxy)chroman-4-carboxylate]"
4,55.8,"Cc1cc(C(=O)Nc2ccc(C(F)(F)F)nc2)ccc1Oc1cc2c(cc1C#N)C(C(=O)O)CCO2 (stereo not drawn) [Example 14, 6-Cyano-7-(2-methyl-4-(6-(trifluoromethyl)pyridin-3-ylcarbamoyl)phenoxy)chroman-4-carboxylic acid]"
5,19.3,"N#Cc1cc2c(cc1Oc1ccc(C(=O)Nc3ccc(C(F)(F)F)cn3)cc1)OCCC2C(=O)O (stereo not drawn) [Example 1, 7-(4-((5-(Trifluoromethyl)pyridin-2-yl)carbamoyl)phenoxy)-6-cyanochroman-4-carboxylic acid]"
6,24.5,"N#Cc1cc2c(cc1Oc1ccc(C(=O)Nc3nc4c(F)cc(F)cc4s3)cc1)OCCC2C(=O)O (stereo not drawn) [Example 202, 6-cyano-7-(4-(4,6-difluorobenzo[d]thiazol-2-ylcarbamoyl)phenoxy) chroman-4-carboxylic acid]"

# Same assay, conditions: 1% HSA, read-out: EC50 (nM) 1% HSA
row,EC50 [nM],Compound
1,482,"N#Cc1cc2c(cc1Oc1ccc(C(=O)Nc3ccc4ccccc4n3)cc1)OCCC2C(=O)O (stereo not drawn) [Example 3, 6-Cyano-7-(4-(quinolin-2-ylcarbamoyl)phenoxy)chroman-4-carboxylic acid]"

# Same assay, conditions: 4% HSA, read-out: EC50 (nM) 4% HSA
row,Compound,EC50 [nM]
1,"O=C(Nc1ccc2cc(C(F)(F)F)ccc2n1)c1ccc(Oc2cc3c(cc2Cl)C(C(=O)O)CCO3)cc1 (stereo not drawn) [Example 16, 6-Chloro-7-(4-(6-(trifluoromethyl)quinolin-2-ylcarbamoyl)phenoxy)chroman-4-carboxylic acid]",142
2,"O=C(Nc1ccn(-c2ccc(F)cc2F)n1)c1ccc(Oc2cc3c(cc2Cl)C(C(=O)O)CCO3)cc1 (stereo not drawn) [Example 168, 6-chloro-7-(4-(1-(2,4-difluorophenyl)-1H-pyrazol-3-ylcarbamoyl)phenoxy)chroman-4-carboxylic acid]",112
3,"O=C(Nc1cccc(-c2ccc(Cl)cc2)n1)c1ccc(Oc2c(Cl)cc3c(c2C2CC2)OCCC3C(=O)O)cc1 (stereo not drawn) [Example 108, Sodium 6-chloro-7-(4-(6-(4-chlorophenyl)pyridin-2-ylcarbamoyl)phenoxy)-8-cyclopropylchroman-4-carboxylate]",144
4,"O=C(Nc1cncc(-c2cccc(Cl)c2)n1)c1ccc(Oc2cc3c(cc2Cl)C(C(=O)O)CCO3)cc1 (stereo not drawn) [Example 92, 6-Chloro-7-(4-(6-(3-chlorophenyl)pyrazin-2-ylcarbamoyl)phenoxy)chroman-4-carboxylic acid]",415
5,"N#Cc1cc2c(cc1Oc1ccc(C(=O)Nc3cccc(-c4ccc5c(c4)CCO5)n3)cc1)OCCC2C(=O)O (stereo not drawn) [Example 43, 6-Cyano-7-(4-(6-(2,3-dihydrobenzofuran-5-yl)pyridin-2-ylcarbamoyl)-phenoxy)chroman-4-carboxylic acid]",291
6,"CN(C)c1nc(C(F)(F)F)ccc1CCNC(=O)c1ccc(Oc2cc3c(cc2Cl)C(C(=O)O)CCO3)cc1 (stereo not drawn) [Example 139, Sodium 6-chloro-7-(4-(2-(2-(dimethylamino)-6-(trifluoromethyl)pyridin-3-yl)ethylcarbamoyl)phenoxy)chroman-4-carboxylate]",40
7,"O=C(Nc1ccc(-c2ccc(C(F)(F)F)cc2)nn1)c1ccc(Oc2cc3c(cc2Cl)C(C(=O)O)CCO3)cc1 (single isomer, unassigned; enantiomer 2) [Example 185, Enantiomer 2 of sodium 6-chloro-7-(4-(6-(4-(trifluoromethyl)phenyl)pyridazin-3-ylcarbamoyl)phenoxy)chroman-4-carboxylate]",60
8,"O=C(Nc1ccc(-c2cccc(C(F)(F)F)c2)nc1)c1ccc(Oc2cc3c(cc2Cl)C(C(=O)O)CCO3)cc1 (stereo not drawn) [Example 75, 6-Chloro-7-(4-(6-(3-(trifluoromethyl)phenyl)pyridin-3-ylcarbamoyl)phenoxy)chroman-4-carboxylic acid]",149
9,"O=C(Nc1nnc(-c2ccc(Cl)cc2)s1)c1ccc(Oc2cc3c(cc2Cl)C(C(=O)O)CCO3)cc1 (stereo not drawn) [Example 149, 6-chloro-7-(4-(5-(4-chlorophenyl)-1,3,4-thiadiazol-2-ylcarbamoyl)phenoxy)chroman-4-carboxylic acid]",1660
10,"O=C(Nc1ccc(-c2ccccc2Cl)cn1)c1ccc(Oc2cc3c(cc2Cl)C(C(=O)O)CCO3)cc1 (stereo not drawn) [Example 117, 6-Chloro-7-(4-(5-(2-chlorophenyl)pyridin-2-ylcarbamoyl)phenoxy)chroman-4-carboxylic acid]",264
11,"O=C(Nc1ccn(-c2ccc(Cl)cc2)n1)c1ccc(Oc2cc3c(cc2Cl)C(C(=O)O)CCO3)cc1 (stereo not drawn) [Example 175, 6-chloro-7-(4-(1-(4-chlorophenyl)-1H-pyrazol-3-ylcarbamoyl)phenoxy)chroman-4-carboxylic acid]",80.7
12,"O=C(Nc1cccc(-c2cc(F)cc(F)c2)n1)c1ccc(Oc2cc3c(cc2Cl)C(C(=O)O)CCO3)cc1 (stereo not drawn) [Example 89, 6-chloro-7-(4-(6-(3,5-difluorophenyl)pyridin-2-ylcarbamoyl)phenoxy)chroman-4-carboxylic acid]",251
13,"CCOc1ncccc1CCNC(=O)c1ccc(Oc2cc3c(cc2Cl)C(C(=O)O)CCO3)cc1 (stereo not drawn) [Example 213, 6-chloro-7-(4-(2-(2-ethoxypyridin-3-yl)ethylcarbamoyl)phenoxy) chroman-4-carboxylic acid]",188
14,"O=C(Nc1cncc(-c2cccc(Cl)c2)c1)c1ccc(Oc2cc3c(cc2Cl)C(C(=O)O)CCO3)cc1 (stereo not drawn) [Example 127, 6-Chloro-7-(4-(5-(3-chlorophenyl)pyridin-3-ylcarbamoyl)phenoxy)chroman-4-carboxylic acid]",690

# The next lines start with the values.
row,EC50 [nM],Compound
1,39.4,"Cc1ccc(-c2cccc(NC(=O)c3ccc(Oc4cc5c(cc4Cl)C(C(=O)O)CCO5)cc3)n2)cc1 (stereo not drawn) [Example 57, 6-Chloro-7-(4-(6-p-tolylpyridin-2-ylcarbamoyl)phenoxy)chroman-4-carboxylic acid]"
2,210,"O=C(Nc1ccc2c(Cl)cccc2n1)c1ccc(Oc2cc3c(cc2Cl)C(C(=O)O)CCO3)cc1 (stereo not drawn) [Example 19, 6-Chloro-7-(4-(5-chloroquinolin-2-ylcarbamoyl)phenoxy)chroman-4-carboxylic acid]"
3,133,"O=C(Nc1ccc(-c2cccc(Cl)c2)nc1)c1ccc(Oc2cc3c(cc2Cl)C(C(=O)O)CCO3)cc1 (stereo not drawn) [Example 124, 6-Chloro-7-(4-(6-(3-chlorophenyl)pyridin-3-ylcarbamoyl)phenoxy)chroman-4-carboxylic acid]"
4,97.5,O=C(Nc1ccn(-c2ccccc2)n1)c1ccc(Oc2cc3c(cc2Cl)C(C(=O)O)CCO3)cc1 (stereo not drawn) [Example 171]
5,173,"O=C(Nc1cccc(-c2ccccc2)n1)c1ccc(Oc2cc3c(cc2Cl)C(C(=O)O)CCO3)cc1 (stereo not drawn) [Example 27, 6-chloro-7-(4-(6-phenylpyridin-2-ylcarbamoyl)phenoxy)chroman-4-carboxylic acid]"
6,22.5,"CC(C)(C)c1ccc(-c2cccc(NC(=O)c3ccc(Oc4cc5c(cc4Cl)C(C(=O)O)CCO5)cc3)n2)cc1 (stereo not drawn) [Example 85, 7-(4-(6-(4-tert-Butylphenyl)pyridin-2-ylcarbamoyl)phenoxy)-6-chlorochroman-4-carboxylic acid]"
7,2730,"O=C(Nc1cc(-c2ccc(Cl)cc2)ccn1)c1ccc(Oc2cc3c(cc2Cl)C(C(=O)O)CCO3)cc1 (stereo not drawn) [Example 120, 6-Chloro-7-(4-(4-(4-chlorophenyl)pyridin-2-ylcarbamoyl)phenoxy)chroman-4-carboxylic acid]"
8,265,"Cc1cc(NC(=O)c2ccc(Oc3cc4c(cc3Cl)C(C(=O)O)CCO4)cc2)nc2ccccc12 (stereo not drawn) [Example 21, 6-Chloro-7-(4-(4-methylquinolin-2-ylcarbamoyl)phenoxy)chroman-4-carboxylic acid]"
9,1600,"CC(C)(C)c1cc(NC(=O)c2ccc(Oc3cc4c(cc3Cl)C(C(=O)O)CCO4)cc2)on1 (stereo not drawn) [Example 162, 7-(4-(3-tert-butylisoxazol-5-ylcarbamoyl)phenoxy)-6-chlorochroman-4-carboxylic acid]"
10,144,"Cc1cc(-c2cccc(NC(=O)c3ccc(Oc4cc5c(cc4Cl)C(C(=O)O)CCO5)cc3)n2)ccc1F (stereo not drawn) [Example 84, 6-Chloro-7-(4-(6-(4-fluoro-3-methylphenyl)pyridin-2-ylcarbamoyl)phenoxy)chroman-4-carboxylic acid]"
11,473,"Cc1nc(NC(=O)c2ccc(Oc3cc4c(cc3Cl)C(C(=O)O)CCO4)cc2)sc1C(C)(C)C (stereo not drawn) [Example 151, 7-(4-(5-tert-butyl-4-methylthiazol-2-ylcarbamoyl)phenoxy)-6-chlorochroman-4-carboxylic acid]"
12,452,"O=C(Nc1cccc(-c2ccnc(C(F)(F)F)c2)n1)c1ccc(Oc2cc3c(cc2Cl)C(C(=O)O)CCO3)cc1 (stereo not drawn) [Example 113, 6-Chloro-7-(4-(2′-(trifluoromethyl)-2,4′-bipyridin-6-ylcarbamoyl)phenoxy)chroman-4-carboxylic acid]"
13,133,"CC(C)Cc1cccc(NC(=O)c2ccc(Oc3cc4c(cc3Cl)C(C(=O)O)CCO4)cc2)n1 (stereo not drawn) [Example 105, 6-Chloro-7-(4-(6-isobutylpyridin-2-ylcarbamoyl)phenoxy)chroman-4-carboxylic acid]"
14,143,"O=C(Nc1cnn(-c2cccc(Cl)c2)c1)c1ccc(Oc2cc3c(cc2Cl)C(C(=O)O)CCO3)cc1 (stereo not drawn) [Example 164, Sodium 6-chloro-7-(4-(1-(3-chlorophenyl)-1H-pyrazol-4-ylcarbamoyl)phenoxy)chroman-4-carboxylate]"
15,466,"COc1ccc2nc(NC(=O)c3ccc(Oc4cc5c(cc4Cl)C(C(=O)O)CCO5)cc3)ccc2c1 (stereo not drawn) [Example 22, 6-Chloro-7-(4-(6-methoxyquinolin-2-ylcarbamoyl)phenoxy)chroman-4-carboxylic acid]"
